In one data set the test system is HOP-62. The experiment in a line: NCI60 antiproliferative screen, lung HOP-62. Type of data set: cell-based, human. The note with it: HOP-62, 48 h, sulforhodamine B, read-out: Cytotoxicity (GI50) lung HOP-62. As to the method:
(§1) All of the indenoisoquinolines were tested for antiproliferative activity in the National Cancer Institute's 60 cell line screen (NCI60). The cells were incubated with the tested compounds at 100, 10, 1, 0.1, and 0.01 μM concentrations for 48 h before treatment with sulforhodamine B dye. Optical densities were recorded, and their ratios relative to that of the control were plotted as percentage growth against the log 10 of the tested compound concentrations. The concentration that corresponds to 50% growth inhibition (GI50) is calculated by interpolation between the points located above and below the 50% percentage growth. The mean-graph midpoint (MGM) is an estimated average of the GI50 values derived from the NCI collection of 60 human cancer cell lines, where during the MGM calculation, anticancer agents with GI50 values that are outside the testing range of 0.01-100 μM are arbitrarily assigned the values of 0.01 and 100 μM, respectively. […] Also, the GI50 values of many of the substances vs. individual human cancer cell lines are below the lowest concentration used (0.01 μM) in the standard NCI testing protocol. […] For example, the MGM cytotoxicity values of 9, 15-17, and 19 are all very close to each other, but the Top1 inhibitory activities range from +++(+) to 0.

For a further data set, the system named is HCT-116. The experiment in a line: NCI60 antiproliferative screen, colon HCT-116. The following applies: HCT-116, 48 h, sulforhodamine B, read-out: Cytotoxicity (GI50) Colon HCT-116. Type of data set: cell-based, human. As to the method:
as §1

Another data set concerns SF-539. The experiment in a line: NCI60 antiproliferative screen, CNS SF-539. The note with it: SF-539, 48 h, sulforhodamine B, read-out: Cytotoxicity (GI50) CNS SF-539. The class given is cell-based, human. As to the method: as §1
A further data set concerns UACC-62. The experiment in a line: NCI60 antiproliferative screen, melanoma UACC-62. The note with it: UACC-62, 48 h, sulforhodamine B, read-out: Cytotoxicity (GI50) melanoma UACC-62. The class given is cell-based, human. As to the method:
as §1

The next data set deals with OVCAR-3. The experiment in a line: NCI60 antiproliferative screen, ovarian OVCAR-3. The note with it: OVCAR-3, 48 h, sulforhodamine B, read-out: Cytotoxicity (GI50) Ovarian OVCAR-3. The class given is cell-based, human. As to the method:
as §1

The subject of another data set is SN12C. The experiment in a line: NCI60 antiproliferative screen, renal SN12C. The class given is cell-based, human. The following applies: 48 h, sulforhodamine B, read-out: Cytotoxicity (GI50) renal SN12C. As for the experimental part: as §1
A further data set deals with DU-145. The experiment in a line: NCI60 antiproliferative screen, prostate DU-145. Type of data set: cell-based, human. The note with it: DU-145, 48 h, sulforhodamine B, read-out: Cytotoxicity (GI50) prostate DU-145. As for the experimental part:
as §1

Another data set has as its system MCF-7. The experiment in a line: NCI60 antiproliferative screen, breast MCF-7. Type of data set: cell-based, human. The note with it: MCF-7, 48 h, sulforhodamine B, read-out: Cytotoxicity (GI50) breast MCF-7. As for the experimental part:
as §1

The test system of data set [1] is all human cancer cell lines successfully tested (NCI60). The experiment in a line: NCI60 mean graph midpoint for growth inhibition. The class given is cell-based. The note with it: for mean GI50 across NCI60 cell lines (MGM): all human cancer cell lines successfully tested, ± standard error, read-out: MGM (mean graph midpoint for growth inhibition); for cytotoxicity relative to parent compound (in words): NCI60. As to the method: as §1

The target in a further data set is T1, Human recombinant Top1 (Homo sapiens, UniProt P11387).
T1 construct: made in house
T1 sequence (P11387 1-765): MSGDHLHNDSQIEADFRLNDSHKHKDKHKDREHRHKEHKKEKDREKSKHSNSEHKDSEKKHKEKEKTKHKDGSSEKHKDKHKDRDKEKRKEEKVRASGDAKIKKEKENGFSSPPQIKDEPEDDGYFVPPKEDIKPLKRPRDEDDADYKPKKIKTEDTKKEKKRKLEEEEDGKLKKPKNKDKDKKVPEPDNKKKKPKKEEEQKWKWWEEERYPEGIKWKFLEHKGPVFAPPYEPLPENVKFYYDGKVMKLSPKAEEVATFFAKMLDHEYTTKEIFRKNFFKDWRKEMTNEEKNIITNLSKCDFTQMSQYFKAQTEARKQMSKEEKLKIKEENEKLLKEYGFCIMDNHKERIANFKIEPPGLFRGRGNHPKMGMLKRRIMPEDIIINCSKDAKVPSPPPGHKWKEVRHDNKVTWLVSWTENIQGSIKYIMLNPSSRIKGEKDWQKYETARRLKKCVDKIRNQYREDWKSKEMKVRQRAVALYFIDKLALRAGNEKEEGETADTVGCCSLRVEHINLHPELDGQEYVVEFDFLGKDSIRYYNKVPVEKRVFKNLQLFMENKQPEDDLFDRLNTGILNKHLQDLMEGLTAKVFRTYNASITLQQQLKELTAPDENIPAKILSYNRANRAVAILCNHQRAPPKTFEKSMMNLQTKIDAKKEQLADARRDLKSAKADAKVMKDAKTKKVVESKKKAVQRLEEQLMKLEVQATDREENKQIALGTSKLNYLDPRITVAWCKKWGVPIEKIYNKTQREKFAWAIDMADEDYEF
The experiment in a line: Top1-mediated DNA cleavage assay. The note with it: for Top 1 Cleavage: graded relative to 1 μM camptothecin; for Top1 inhibitory activity (level): scored relative to compounds 1 and 4. Further details: key to Top1 inhibitory activity (level): 0, no detectable activity; +, weak activity; ++, similar activity to compound 4; +++, greater activity than 4; ++++, equipotent with 1; ++(+) would be between ++ and +++; key to Top 1 Cleavage: 0, no inhibitory activity; +, between 20 and 50% activities; ++, between 50 and 75% activity; +++, between 75 and 95% activity; ++++, equipotent. Type of data set: biochemical. As for the experimental part:
All of the new indenoisoquinoline derivatives were tested in Top1-mediated DNA cleavage assays. For this purpose, a ^32P 3′-end labeled 117-bp DNA fragment was incubated with Top1 at four concentrations of a tested compound. The DNA fragments were separated on 20% PAGE denaturing gels. The Top1 inhibitory activities were assigned on the basis of the visual inspection of the number and intensities of the gel bands corresponding to Top1-mediated DNA cleavage fragments and scored relative to the Top1 inhibitory activity of compounds 1 and 4. Results are expressed in semiquantitative fashion: 0, no detectable activity; +, weak activity; ++, similar activity to compound 4; +++, greater activity than 4; ++++, equipotent with 1. Ambiguous scores (e.g., between two values) are designated with parentheses (e.g., ++(+) would be between ++ and +++). […] After conversion of the hydroxyl to a dimethylcarbamate, the observed Top1 inhibitory activity increased from ++(+) for compound 8 to +++ for compound 10. Introduction of an acetyl group at the 0-2 position yielded compound 11, which was also a Top1 poison with activity at the ++ level. Subsequently, several hydrophobic substituents were attached to the 0-2 position.
Topoisomerase I-Mediated DNA Cleavage Reactions.
Human recombinant Top1 was purified from baculovirus as previously described (Morrell, A., et al., J. Med. Chem. 2007, 50, 2040-2048). DNA cleavage reactions were prepared as previously reported with the exception of the DNA substrate (Strumberg, D., et al., J. Med. Chem. 1999, 42, 446-457). Briefly, a 117-bp DNA oligonucleotide (Integrated DNA Technologies) encompassing the previously identified Top1 cleavage sites in the 161-bp fragment from pBluescript SK(−) phagemid DNA was employed. This 117-bp oligonucleotide contains a single 5′-cytosine overhang, which was 3′-end-labeled by fill-in reaction with [α-^32P]dGTP in React 2 buffer (50 mM Tris-HCl, pH 8.0, […], 50 mM NaCl) with 0.5 unit of DNA polymerase I (Klenow fragment, New England BioLabs). Unincorporated [^32P]dGTP was removed using mini Quick Spin DNA columns (Roche, Indianapolis, Ind.), and the eluate containing the 3′-end-labeled DNA substrate was collected. Approximately 2 nM radiolabeled DNA substrate was incubated with recombinant Top1 in 20 μL of reaction buffer [10 mM Tris-HCl (pH 7.5), 50 mM KCl, 5 mM MgCl2, 0.1 mM EDTA, and 15 μg/mL BSA] at 25° C. for 20 min in the presence of various concentrations of compounds. The reactions were terminated by adding SDS (0.5% final concentration) followed by the addition of two volumes of loading dye (80% formamide, 10 mM sodium hydroxide, 1 mM sodium EDTA, 0.1% xylene cyanol, and 0.1% bromophenol blue). Aliquots of each reaction mixture were subjected to 20% denaturing PAGE. Gels were dried and visualized by using a phosphoimager and ImageQuant software (Molecular Dynamics). For simplicity, cleavage sites were numbered as previously described in the 161-bp fragment.

Counter-ions that a name gives are not always drawn. Like-named read-outs stand apart in the source and are kept apart here. Bounds are passed on as bounds.

Regarding `COc1cc2c3c(n(CCCN4CCOCC4)c(=O)c2cc1OS(=O)(=O)O)-c1cc2c(cc1C3=O)OCO2` [Compound 20, 2-Methoxy-6-(3-morpholinopropyl)-5,12-dioxo-6,12-dihydro-5H-[1,3]dioxolo[4′,5′:5,6]indeno[1,2-c]isoquinolin-3-yl Hydrogen Sulfate], the GI50 (usually the concentration that inhibits growth by half) in the data set on HOP-62 stood at 0.389 µM; in the data set on HCT-116, 0.389 µM; in the data set with SF-539, 0.263 µM; in the data set with UACC-62, 0.263 µM; in the data set with OVCAR-3 it was 1.12 µM; with SN12C it was 0.355 µM. In addition, the GI50 is 0.417 µM in the data set with DU-145 and 0.209 µM in the data set on MCF-7. In addition, the mean GI50 across NCI60 cell lines (MGM) in data set [1] is 0.912 µM. The “Top 1 Cleavage” value on Human recombinant Top1 is “++ (++, between 50 and 75% activity)”.
In the case of `COc1cc2c3c(n(CCCN4CCOCC4)c(=O)c2cc1O)-c1cc2c(cc1C3=O)OCO2` [Compound 9], the GI50 in the data set with HOP-62 (Homo sapiens) was 0.01 µM; in the data set on HCT-116 (Homo sapiens), 0.02 µM; in the data set with SF-539 (Homo sapiens) it was less than 0.01 µM; in the data set on UACC-62 (Homo sapiens) it was less than 0.01 µM; with OVCAR-3 (Homo sapiens), 0.03 µM; in the data set with SN12C (Homo sapiens), less than 0.01 µM. The GI50 in the data set on DU-145 (Homo sapiens) is less than 0.01 µM; in the data set with MCF-7 (Homo sapiens, MCF7), less than 0.01 µM. In addition, the mean GI50 across NCI60 cell lines (MGM) in data set [1] worked out at 0.076 ± 0.028 µM.
As to `COC(=O)CCC(=O)Oc1cc2c3c(n(CCCN4CCOCC4)c(=O)c2cc1OC)-c1cc2c(cc1C3=O)OCO2` [Compound 12, 3-Methoxy-6-(3-morpholinopropyl)-5,12-dioxo-6,12-dihydro-5H-[1,3]dioxolo[4′,5′:5,6]indeno[1,2-c]isoquinolin-2-yl Methyl Succinate], the GI50 in the data set with HOP-62 is less than 0.01 µM; with HCT-116 it was 0.014 µM; with SF-539 it was less than 0.01 µM; with UACC-62 it was less than 0.01 µM; with OVCAR-3 it was 0.066 µM; in the data set with SN12C, less than 0.01 µM. The GI50 in the data set with DU-145 and in the data set on MCF-7 was less than 0.01 µM in each case. The “cytotoxicity relative to parent compound (in words)” value in data set [1] was “greater than the parent 8 by a factor of almost one order of magnitude”. In addition, the mean GI50 across NCI60 cell lines (MGM) in data set [1] is 0.049 ± 0.008 µM. Moreover, the “Top 1 Cleavage” value on Human recombinant Top1 is “+ (+, between 20 and 50% activities)”. The “Top1 inhibitory activity (level)” value at Human recombinant Top1 is reported as “+”.
Turning to `COc1cc2c(=O)n(CCCN3CCOCC3)c3c(c2cc1OC(C)=O)C(=O)c1cc2c(cc1-3)OCO2` [Compound 11, 3-Methoxy-6-(3-morpholinopropyl)-5,12-dioxo-6,12-dihydro-5H-[1,3]dioxolo[4′,5′:5,6]indeno[1,2-c]isoquinolin-2-yl Acetate], the GI50 in the data set with HOP-62 was 0.018 µM; with HCT-116, 0.029 µM; with SF-539 it was less than 0.01 µM; in the data set with UACC-62, 0.018 µM; in the data set with OVCAR-3, 0.138 µM; in the data set on SN12C, less than 0.01 µM. Besides, the GI50 in the data set with DU-145 and with MCF-7 was less than 0.01 µM throughout. Moreover, the “cytotoxicity relative to parent compound (in words)” value in [1] was “greater than the parent 8 by a factor of almost one order of magnitude”. For the same molecule, the mean GI50 across NCI60 cell lines (MGM) in [1] turned out to be 0.043 ± 0.019 µM. Also, the “Top 1 Cleavage” value on Human recombinant Top1 was “++ (++, between 50 and 75% activity)”. Also, the “Top1 inhibitory activity (level)” value at Human recombinant Top1 is recorded as “++”.
With `COc1cc2c3c(n(CCCN4CCOCC4)c(=O)c2cc1OC(C)=O)-c1cc2c(cc1C3=O)OCO2` [Compound 16, 2-Methoxy-6-(3-morpholinopropyl)-5,12-dioxo-6,12-dihydro-5H-[1,3]dioxolo[4′,5′:5,6]indeno[1,2-c]isoquinolin-3-yl Acetate], the GI50 in the data set with HOP-62 was less than 0.01 µM; with HCT-116 it was less than 0.01 µM; with SF-539 it was less than 0.01 µM; in the data set on UACC-62, less than 0.01 µM; in the data set with OVCAR-3, 0.269 µM; with SN12C, less than 0.01 µM. The concentration for 50% growth inhibition (GI50) in the data set with DU-145 and in the data set on MCF-7 was less than 0.01 µM in each case. Further, the mean GI50 across NCI60 cell lines (MGM) in data set [1] was found to be 0.095 ± 0.045 µM. Also, the “Top 1 Cleavage” value at Human recombinant Top1 amounted to 0.
